Assay [1] has as its system P19 neurons. The assay can be described thus: Viability of P19 neurons exposed to XA/XAO prooxidant system (Alamar Blue). Type of assay: cell-based. Particulars: FIG. 3. The procedure:
(§1) Culture and neuronal differentiation of P19 embryonal carcinoma cells were done according to the procedures of Jeannotte et al. (1997) with the following modifications for microscale adaptation of cultures to 96-well plates: cell aggregates obtained at day 4 of the treatment of P19 cells with retinoic acid were trypsinized with 0.025% trypsin-1 mM EDTA in PBS and subjected to mechanical passages to obtain individual cells which were seeded in gelatin-precoated microwells at a density of 0.7-1×10^5 cells per well. The newly seeded cells (neurons) were cultured in supplemented Neurobasal medium (Neurobasal® containing 0.5 mM L-glutamine and 0.5% B27 supplement) until exposure to oxidative conditions at day 7. […]
(§2) P19 neurons were exposed to the following prooxidant systems: i) XA/XAO system (which produces •O2^− superoxide radicals and hydrogen peroxide H2O2, according to equation 1, shown below); ii) hydrogen peroxide H2O2; and iii) H2O2/Fe^+2 system (which generates •OH [hydroxyl radicals] via the Fenton reaction, equation 2). […] After they were incubated under oxidative conditions, neurons were analyzed for their residual viability by a fluorimetric assay using the Alamar Blue probe (see section 2.5). […]
(§3) After they were incubated under oxidative conditions, neurons were analyzed for their residual viability by a fluorimetric assay using the Alamar Blue probe. […]

For assay [2], the system named is P19 neurons. The assay can be described thus: Viability of P19 neurons exposed to H2O2 (Alamar Blue). Type of assay: cell-based. The conditions noted are these: catalase 84 U; 5 mM hydrogen peroxide during 30 min. The procedure: as §1, §2, §3
Assay [3] can be described thus: In vitro antioxidant capacity: inhibition of DPD oxidation by H2O2. The assay is classed as biochemical. The conditions noted are these: 84 U catalase; 30 min exposure to 5 mM H2O2 (not shown). As to the method:
Oxidation of N,N-diethyl-p-phenylenediamine (DPD) by a prooxidant system was used as a general reporter of the amount of ROS generated by that system (Anonymous, 1985; Chahine et al., 1991). Antioxidant capacity of preparations of TRIAD (or of its components) was defined as the ability to inhibit the oxidation of DPD by prooxidants.
To estimate the antioxidant capacity of TRIAD preparations in the prooxidant conditions used with P19 neurons, DPD was added to a final concentration of 32 mM to 200 μl of each prooxidant system described above (see section 2.4) and incubated for the times tested with the cells. At the end of incubation, the amount of oxidized DPD was determined at 560 nm using a spectrophotometer adapted to microscale measurement.
FIG. 5. In vitro antioxidant capacity of CP and TRIAD, in the conditions of H2O2 prooxidant system used with P19 neurons. In this assay, conditions of incubation were as described in the legend to FIG. 4 except that P19 neurons were replaced by N,N-diethyl-p-phenylenediamine (DPD) which absorbs at 560 nm upon oxidation. The experiment was done four times, in triplicate determinations, and results are expressed as means±S.D.

The conditions of assay [4]: Atanasiu et al., 1998; cited from earlier work.
The subject of a further assay is CP ferroxidase activity. Kind of assay: CP ferroxidase activity after incubation with H2O2, without or with pyruvate. The assay is classed as biochemical, bovine. The conditions noted are these: FIG. 8; 5 mM pyruvate, CP 4 μM, 5 mM H2O2, 37° C. As to the method: CP (4 μM) was incubated for different times (ranging from 0 to 12 h) in the presence of 5 mM H2O2, at 37° C., in PBS, without or with the addition of pyruvate (5 mM) as a protecting agent. At the end of incubation, catalase was added at a concentration of 0.1 mg/ml (84 U/ml) and incubation resumed at room temperature for 15 min in order to inactivate H2O2. Ferroxidase activity of CP was then measured by absorbence using a modified version of the method of Erel (1998). This method uses a chromogen to complex Fe^2+ ions that were not transformed to Fe^3+ions in the assay solution. The reaction mix contained 0.45M acetate buffer, pH 5.8, 60 μM Fe(NH4)2(SO4).6H2O, and either CP (sample), 25 mM EDTA (control corresponding to 100% iron oxidation) or PBS (control corresponding to 0% iron oxidation).
FIG. 8. Protection of CP ferroxidase activity by pyruvate in vitro. CP was incubated for various times, at 37° C., in the presence of 5 mM H2O2, without (No protection) or with 5 mM sodium pyruvate. The reaction was stopped by a 5 min incubation with an excess of catalase. Ferroxidase activity was then measured and expressed relatively (%) to that of a control CP sample not exposed to H2O2. The experiment was done three times, in duplicate determinations, and results are expressed as means±S.D.

On to catalase, for which the “XAO concentration up to which protection was offered” value with P19 neurons [1] (250 μM XA, CP 4 μM, catalase 84 U) is “up to 50 mU/mL”. For the same molecule, the Protection to neurons result is “about 10%” in the assay on P19 neurons [1] (84 U catalase, incubated for 40 min with XAO in the presence of 250 μM XA) and 100% with P19 neurons [2]. In addition, in assay [3], the “Inhibition of DPD oxidation by H2O2” value is given as “completely inhibit DPD oxidation”.

Turning to albumin, the “Concentration ensuring good antioxidative activity in vitro” value in assay [4] is 260 µM.

Take `CC(=O)C(=O)[O-].[Na+]` [pyruvate, sodium pyruvate]: the “Protection of CP ferroxidase activity against H2O2” value with CP ferroxidase activity is recorded as “inhibited the loss of ferroxidase activity”.

The values are drawn from patent US6780842B2, “Ceruloplasmin and an antioxidant composition comprising the same and their uses as neuroprotective agent” (Warner-Lambert Company LLC, priority 1999, dated 2004).
